Experimental data: BindingDB's records for doi:10.1016/j.bmc.2017.03.072 (Ewha Womans University, 2017)

The compounds below were run against Interleukin-6 (Human, UniProt P05231) (assay: ChEBML_1684684).
Experimental: Inhibition of IL-6 signaling pathway in human HepG2 cells transfected with p-STAT3-Luc assessed as reduction in IL-6 induced STAT3 phosphorylation preincubated for 1 hr followed by IL-6 induction measured after 10 mins by immunoblot analysis

Chain of Interleukin-6 (P05231 whole entry): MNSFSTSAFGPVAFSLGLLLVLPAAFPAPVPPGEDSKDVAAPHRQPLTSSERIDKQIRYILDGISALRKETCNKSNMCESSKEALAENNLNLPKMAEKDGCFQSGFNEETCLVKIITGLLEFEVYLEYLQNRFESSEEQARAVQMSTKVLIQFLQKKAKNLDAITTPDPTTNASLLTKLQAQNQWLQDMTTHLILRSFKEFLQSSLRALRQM

Point of comparison: `CCc1ccc(Nc2nc3cc(NC(=O)c4ccccc4)ccc3o2)cc1`, IC50 5.8 µM. Against it:
- C=C1C(C)=C(CCCC)C(=O)[C@]1(C)CN1c2ccccc2[C@]2(O)CCO[C@H]12 — 3.6-fold higher, 20.7 µM
- CCc1ccc(Nc2nc3cc(N)ccc3o2)cc1 — 3.3-fold higher, 18.9 µM
